What is called EC50 is the concentration that produces a half-maximal response.

In this assay the target is FPR2 (Homo sapiens (Human), UniProt P25090). Kind of assay: FLIPR Ca+2 response, HEK-Gα16 cells stably expressing the human FPR2 receptor (Table 4). It is filed as cell-based. Particulars: for FPR2 (efficacy): efficacy in parentheses. The method, then:
FLIPR: HEK-Gα16 cells stably expressing the human FPR2 receptor was utilized. Cells were plated into 384-well poly-D-lysine coated plates at a density of 18,000 cells per well one day prior to use. The growth media was DMEM medium supplemented with 10% fetal bovine serum (FBS), 1% antibiotic-antimycotic, 50 μg/ml hygromycin, and 400 μg/ml geneticin. On the day of the experiment, the cells were washed twice with Hank's Balanced Salt Solution supplemented with 20 mM HEPES (HBSS/hepes buffer). The cells were then dye loaded with 2 μM Fluo-4 diluted in the HBSS/Hepes buffer and incubated at 37° C. for 40 minutes. Extracellular dye was removed by washing the cell plates four times prior to placing the plates in the FLIPR (Fluorometric Imaging Plate Reader, Molecular Devices). Ligands were diluted in HBSS/Hepes buffer and prepared in 384-well microplates. Data for Ca^+2 responses were obtained in relative fluorescence units.

Chain of FPR2 (P25090 whole entry): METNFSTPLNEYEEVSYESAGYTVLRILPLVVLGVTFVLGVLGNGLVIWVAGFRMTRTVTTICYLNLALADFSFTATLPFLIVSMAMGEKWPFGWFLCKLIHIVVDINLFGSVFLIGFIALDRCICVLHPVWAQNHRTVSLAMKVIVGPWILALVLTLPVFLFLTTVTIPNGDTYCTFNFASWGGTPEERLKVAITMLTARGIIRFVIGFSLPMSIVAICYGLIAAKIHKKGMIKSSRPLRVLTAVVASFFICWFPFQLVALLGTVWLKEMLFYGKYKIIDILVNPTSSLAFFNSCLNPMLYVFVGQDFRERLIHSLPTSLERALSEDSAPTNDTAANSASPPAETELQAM

As for `O=C(Nc1ccc(Br)cc1)NC(Cc1ccccc1)C(=O)NC1CCCCNC1=O` (stereo not shown) [Compound 10, 2-{[(4-bromophenyl)carbamoyl]amino}-N-(2-oxoazepan-3-yl)-3-phenylpropanamide], the EC50 was determined as 11 nM and the “FPR2 (efficacy)” value was “nM (0.89)”.

In the case of `O=C(O)C1C(C(=O)Nc2ccc(I)cc2)C2C=CC1C21CC1` (stereo not shown) [Compound 11, 3-[(4-iodophenyl)carbamoyl] spiro[bicyclo[2.2.1]heptane-7,1′-cyclopropane]-5-ene-2-carboxylic acid], the midpoint of the response, the EC50, lay at 1.6 nM and the “FPR2 (efficacy)” value was “nM (1.00)”.

Turning to `O=C(O)C1C(C(=O)Nc2ccc(Br)cc2)C2C=CC1C21CC1` (stereo not shown) [Compound 12, 3-[(4-bromophenyl)carbamoyl] spiro[bicyclo[2.2.1]heptane-7,1′-cyclopropane]-5-ene-2-carboxylic acid], the half-maximal effective concentration (EC50) was 4 nM and the “FPR2 (efficacy)” value is listed as “nM (0.97)”.

For the compound `CC(=O)c1ccc(NC(=O)Nc2ccc3c(c2)C(=O)N(CCc2c[nH]cn2)C(c2ccc(C#N)cc2)C3)cc1` (stereo not shown) [Compound 13, 1-(4-acetylphenyl)-3-{3-(4-cyanophenyl)-2-[2-(1H-imidazol-4-yl)ethyl]-1-oxo-1,2,3,4-tetrahydroisoquinolin-7-yl}urea], the “FPR2 (efficacy)” value is “nM (0.80)”.

Consider `O=C(O)C1C(C(=O)Nc2ccc(I)cc2)C2CCC1C21CC1` (stereo not shown) [Compound 15, 3-[(4-iodophenyl)carbamoyl] spiro[bicyclo[2.2.1]heptane-7,1′-cyclopropane]-2-carboxylic acid], for which it took 0.6 nM to reach a half-maximal effect (EC50) and the “FPR2 (efficacy)” value was “nM (0.87)”.

As for `CSc1ccc(NC(=O)Nc2ccc3c(c2)C(=O)N(CCCN)C(c2ccc(C#N)cc2)C3)cc1` (stereo not shown) [Compound 16, 1-[2-(3-aminopropyl)-3-(4-cyanophenyl)-1-oxo-1,2,3,4-tetrahydroisoquinolin-7-yl]-3-[4-(methylsulfanyl)phenyl]urea], the “FPR2 (efficacy)” value is on record as “nM (0.70)”.

On to `CSc1ccc(NC(=O)Nc2ccc3c(c2)C(=O)N(CCc2c[nH]cn2)C(c2ccc(C#N)cc2)C3)cc1` (stereo not shown) [Compound 17, 1-{3-(4-cyanophenyl)-2-[2-(1H-imidazol-4-yl)ethyl]-1-oxo-1,2,3,4-tetrahydroisoquinolin-7-yl}-3-[4-(methylsulfanyl)phenyl]urea], for which the EC50 turned out to be 5.5 nM and the “FPR2 (efficacy)” value was “nM (0.92)”.

On to `CS(=O)(=O)c1ccc(NC(=O)Nc2ccc3c(c2)C(=O)N(CCCN)C(c2ccc(C#N)cc2)C3)cc1` (stereo not shown) [Compound 18, 1-[2-(3-aminopropyl)-3-(4-cyanophenyl)-1-oxo-1,2,3,4-tetrahydroisoquinolin-7-yl]-3-[4-(methylsulfonyl)phenyl]urea], for which the “FPR2 (efficacy)” value is listed as “nM (0.86)”.

Take `CS(=O)(=O)c1ccc(NC(=O)Nc2ccc3c(c2)C(=O)N(CCc2c[nH]cn2)C(c2ccc(C#N)cc2)C3)cc1` (stereo not shown) [Compound 19, 1-{3-(4-cyanophenyl)-2-[2-(1H-imidazol-4-yl)ethyl]-1-oxo-1,2,3,4-tetrahydroisoquinolin-7-yl}-3-[4-(methylsulfonyl)phenyl]urea]: the “FPR2 (efficacy)” value is listed as “nM (1.00)”.

`CC(C)=C1C2C=CC1C(C(=O)Nc1ccc(I)cc1)C2C(=O)O` (stereo not shown) [Compound 20, 3-[(4-iodophenyl)carbamoyl]-7-(propan-2-ylidene)bicyclo[2.2.1]hept-5-ene-2-carboxylic acid]: the “FPR2 (efficacy)” value is “nM (0.94)”.

Take `CC1(C)C2CCC1C(C(=O)Nc1ccc(Br)cc1)C2C(=O)O` (stereo not shown) [Compound 21, 3-[(4-bromophenyl)carbamoyl]-7,7-dimethylbicyclo[2.2.1]heptane-2-carboxylic acid]: the “FPR2 (efficacy)” value is “nM (0.85)”.

Consider `CC1(C)C2CCC1C(C(=O)Nc1ccc(I)cc1)C2C(=O)O` (stereo not shown) [Compound 22, 3-[(4-iodophenyl)carbamoyl]-7,7-dimethylbicyclo[2.2.1]heptane-2-carboxylic acid], for which the “FPR2 (efficacy)” value is listed as “nM (0.97)”.

Take `CSc1ccc(NC(=O)Nc2ccc3c(c2)C(=O)N(CCc2c[nH]cn2)C(c2ccco2)C3)cc1` (stereo not shown) [Compound 23, 1-{3-(furan-2-yl)-2-[2-(1H-imidazol-4-yl)ethyl]-1-oxo-1,2,3,4-tetrahydroisoquinolin-7-yl}-3-[4-(methylsulfanyl)phenyl]urea]: the “FPR2 (efficacy)” value was “nM (0.83)”.

For `C[S+]([O-])c1ccc(NC(=O)Nc2ccc3c(c2)C(=O)N(CCc2c[nH]cn2)C(c2ccc(F)cn2)C3)cc1` (stereo not shown) [Compound 24, 1-{3-(5-fluoropyridin-2-yl)-2-[2-(1H-imidazol-4-yl)ethyl]-1-oxo-1,2,3,4-tetrahydroisoquinolin-7-yl}-3-[4-(methylsulfinyl)phenyl]urea], the “FPR2 (efficacy)” value is “nM (0.93)”.

With `CS(=O)(=O)c1ccc(NC(=O)Nc2ccc3c(c2)C(=O)N(CCc2c[nH]cn2)C(c2ccc(F)cn2)C3)cc1` (stereo not shown) [Compound 25, 1-{3-(5-fluoropyridin-2-yl)-2-[2-(1H-imidazol-4-yl)ethyl]-1-oxo-1,2,3,4-tetrahydroisoquinolin-7-yl}-3-[4-(methylsulfonyl)phenyl]urea], the “FPR2 (efficacy)” value is reported as “nM (1.0)”.

As for `NC(=O)C1C(C(=O)Nc2ccc(Br)cc2)C2C=CC1C21CC1` (stereo not shown) [Compound 26, N-(4-bromophenyl) spiro[bicyclo[2.2.1]heptane-7,1′-cyclopropane]-5-ene-2,3-dicarboxamide], the “FPR2 (efficacy)” value is recorded as “nM (0.91)”.

With `CSc1ccc(NC(=O)Nc2ccc3c(c2)C(=O)N(CCc2c[nH]cn2)C(c2ccc(Cl)o2)C3)cc1` (stereo not shown) [Compound 27, 1-{3-(5-chlorofuran-2-yl)-2-[2-(1H-imidazol-4-yl)ethyl]-1-oxo-1,2,3,4-tetrahydroisoquinolin-7-yl}-3-[4-(methylsulfanyl)phenyl]urea], the “FPR2 (efficacy)” value is on record as “nM (0.81)”.

On to `CSc1ccc(NC(=O)Nc2ccc3c(c2)C(=O)N(CCc2c[nH]cn2)C(c2ccc(Cl)nc2)C3)cc1` (stereo not shown) [Compound 28, 1-{3-(6-chloropyridin-3-yl)-2-[2-(1H-imidazol-4-yl)ethyl]-1-oxo-1,2,3,4-tetrahydroisoquinolin-7-yl}-3-[4-(methylsulfanyl)phenyl]urea], for which the “FPR2 (efficacy)” value is reported as “nM (0.89)”.

As for `NC(=O)C1C(C(=O)Nc2ccc(Br)cc2)C2CCC1C21CC1` (stereo not shown) [Compound 30, N-(4-bromophenyl) spiro[bicyclo[2.2.1]heptane-7,1′-cyclopropane]-2,3-dicarboxamide], a half-maximal effect (EC50) was put at 2.5 nM and the “FPR2 (efficacy)” value was “nM (0.96)”.

Turning to `CSc1ccc(NC(=O)Nc2ccc3c(c2)C(=O)N(CCc2c[nH]cn2)C(c2ccc(Cl)cn2)C3)cc1` (stereo not shown) [Compound 32, 1-{3-(5-chloropyridin-2-yl)-2-[2-(1H-imidazol-4-yl)ethyl]-1-oxo-1,2,3,4-tetrahydroisoquinolin-7-yl}-3-[4-(methylsulfanyl)phenyl]urea], the “FPR2 (efficacy)” value was “nM (0.91)”.

In the case of `CS(=O)(=O)c1ccc(NC(=O)Nc2ccc3c(c2)C(=O)N(CCc2c[nH]cn2)C(c2ccc(Cl)cn2)C3)cc1` (stereo not shown) [Compound 33, 1-{3-(5-chloropyridin-2-yl)-2-[2-(1H-imidazol-4-yl)ethyl]-1-oxo-1,2,3,4-tetrahydroisoquinolin-7-yl}-3-[4-(methylsulfonyl)phenyl]urea], the “FPR2 (efficacy)” value is “nM (0.99)”.

For the compound `CC1(C)C2CCC1C(C(=O)Nc1ccc(Br)cc1)C2C(N)=O` (stereo not shown) [Compound 34, N-(4-bromophenyl)-7,7-dimethylbicyclo[2.2.1]heptane-2,3-dicarboxamide], the “FPR2 (efficacy)” value was “nM (0.83)”.

With `CC1(C)C2CCC1C(C(=O)Nc1ccc(I)cc1)C2C(N)=O` (stereo not shown) [Compound 35, N-(4-iodophenyl)-7,7-dimethylbicyclo[2.2.1]heptane-2,3-dicarboxamide], the “FPR2 (efficacy)” value is listed as “nM (0.81)”.

Turning to `CSc1ccc(NC(=O)Nc2ccc3c(c2)C(=O)N(CCCN)[C@@H](c2ccc(C#N)cc2)C3)cc1` [Compound 36, (+)1-[(3R)-2-(3-aminopropyl)-3-(4-cyanophenyl)-1-oxo-1,2,3,4-tetrahydroisoquinolin-7-yl]-3-[4-(methylsulfanyl)phenyl]urea], the half-maximal effective concentration (EC50) is 3.3 nM and the “FPR2 (efficacy)” value is on record as “nM (0.97)”.

For the compound `CSc1ccc(NC(=O)C2C(C(N)=O)C3CCC2C3(C)C)cc1` (stereo not shown) [Compound 37, 7,7-dimethyl-N-[4-(methylsulfanyl)phenyl]bicyclo[2.2.1]heptane-2,3-dicarboxamide], the EC50 came to 17 nM and the “FPR2 (efficacy)” value is “nM (0.85)”.

`NC(=O)C1C(C(=O)Nc2ccc(I)cc2)C2CCC1C21CC1` (stereo not shown) [Compound 38, N-(4-iodophenyl) spiro[bicyclo[2.2.1]heptane-7,1′-cyclopropane]-2,3-dicarboxamide]: a half-maximal response (EC50) required 1.9 nM and the “FPR2 (efficacy)” value was “nM (0.95)”.

As to `NC(=O)C1C(C(=O)Nc2ccc(I)cc2)C2C=CC1C21CC1` (stereo not shown) [Compound 39, N-(4-iodophenyl) spiro[bicyclo[2.2.1]heptane-7,1′-cyclopropane]-5-ene-2,3-dicarboxamide], the EC50 is 1.6 nM and the “FPR2 (efficacy)” value is reported as “nM (0.90)”.

Regarding `C[S+]([O-])c1ccc(NC(=O)Nc2ccc3c(c2)C(=O)N(CCCNC(=O)OC(C)(C)C)[C@@H](c2ccc(C#N)cc2)C3)cc1` (stereo partly drawn) [Compound 40, (+) tert-butyl {3-[(3R)-3-(4-cyanophenyl)-7-({[4-(methylsulfinyl)phenyl]carbamoyl}amino)-1-oxo-3,4-dihydroisoquinolin-2(1H)-yl]propyl}carbamate], the midpoint of the response, the EC50, lay at 103 nM and the “FPR2 (efficacy)” value was “nM (0.91)”.

As for `C[S+]([O-])c1ccc(NC(=O)Nc2ccc3c(c2)C(=O)N(CCCN)[C@@H](c2ccc(C#N)cc2)C3)cc1` (stereo partly drawn) [Compound 41, (+) 1-[(3R)-2-(3-aminopropyl)-3-(4-cyanophenyl)-1-oxo-1,2,3,4-tetrahydroisoquinolin-7-yl]-3-[4-(methylsulfinyl)phenyl]urea], the “FPR2 (efficacy)” value is on record as “nM (0.94)”.

The values are drawn from US10208071B2, “Use of agonists of formyl peptide receptor 2 for treating ocular inflammatory diseases” (Allergan, Inc., priority 2013, dated 2019).
